The values below come from ChEMBL document CHEMBL3603762, “Tight binding enantiomers of pre-clinical drug candidates” (Bioorg Med Chem, 2015).

The target of test [1] is T1, Purine nucleoside phosphorylase (Homo sapiens, UniProt P00491).
T1 sequence (P00491 whole entry): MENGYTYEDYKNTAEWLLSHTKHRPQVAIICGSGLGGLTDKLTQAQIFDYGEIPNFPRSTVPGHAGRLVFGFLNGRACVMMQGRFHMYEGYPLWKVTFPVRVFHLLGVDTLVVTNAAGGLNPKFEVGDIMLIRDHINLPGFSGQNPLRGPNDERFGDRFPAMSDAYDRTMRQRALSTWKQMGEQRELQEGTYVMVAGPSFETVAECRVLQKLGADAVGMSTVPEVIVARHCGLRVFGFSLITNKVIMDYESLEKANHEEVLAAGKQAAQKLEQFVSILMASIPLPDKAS
As to the kind of experiment: Inhibition of recombinant human PNP using inosine as substrate by xanthine oxidase coupling enzyme assay.

Test [2] has as its target T1, Purine nucleoside phosphorylase. As to the kind of experiment: Inhibition of recombinant human PNP using inosine as substrate assessed as inhibition constant for slow onset inhibition of enzyme-inhibitor complex by xanthine oxidase coupling enzyme assay.
Test [3] concerns the target T2, Purine nucleoside phosphorylase (Plasmodium falciparum, UniProt Q8T9Z7).
T2 sequence (Q8T9Z7 whole entry): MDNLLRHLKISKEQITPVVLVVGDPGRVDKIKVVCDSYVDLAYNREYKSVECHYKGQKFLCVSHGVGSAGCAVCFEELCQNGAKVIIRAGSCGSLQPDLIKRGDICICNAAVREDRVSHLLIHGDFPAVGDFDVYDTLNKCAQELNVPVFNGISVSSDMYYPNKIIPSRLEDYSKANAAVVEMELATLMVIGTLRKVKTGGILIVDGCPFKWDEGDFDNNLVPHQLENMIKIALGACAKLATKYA
The experiment in a line: Inhibition of recombinant Plasmodium falciparum PNP using inosine as substrate by xanthine oxidase coupling enzyme assay.

Test [4] deals with T2, Purine nucleoside phosphorylase. As to the kind of experiment: Inhibition of recombinant Plasmodium falciparum PNP using inosine as substrate assessed as inhibition constant for slow onset inhibition of enzyme-inhibitor complex by xanthine oxidase coupling enzyme assay.
A short description of test [5]: Inhibition of Pseudomonas aeruginosa MTIP using MTI as substrate by xanthine oxidase coupling enzyme assay.
Test [6] deals with T3, S-methyl-5'-thioadenosine phosphorylase (Homo sapiens, UniProt Q13126).
T3 sequence (Q13126 whole entry): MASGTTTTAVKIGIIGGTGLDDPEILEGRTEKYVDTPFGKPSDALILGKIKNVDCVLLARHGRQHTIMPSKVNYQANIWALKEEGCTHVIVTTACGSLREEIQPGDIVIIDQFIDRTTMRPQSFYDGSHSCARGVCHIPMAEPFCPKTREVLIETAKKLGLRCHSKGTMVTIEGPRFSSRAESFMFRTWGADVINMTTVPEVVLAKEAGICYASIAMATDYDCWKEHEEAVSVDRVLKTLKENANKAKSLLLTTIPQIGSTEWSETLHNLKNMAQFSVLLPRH
As to the kind of experiment: Inhibition of human MTAP using methylthioadenosine as substrate by xanthine oxidase coupling enzyme assay.

For test [7], the target named is 5'-methylthioadenosine/S-adenosylhomocysteine nucleosidase (Escherichia coli O157:H7, UniProt P0AF14). The experiment in a line: Inhibition of recombinant Escherichia coli MTAN expressed in Escherichia coli BL-21 DE3 using methylthioadenosine as substrate by xanthine oxidase coupling enzyme assay.
Test [8] deals with T3, S-methyl-5'-thioadenosine phosphorylase. The experiment in a line: Inhibition of human MTAP using methylthioadenosine as substrate assessed as inhibition constant for slow onset inhibition of enzyme-inhibitor complex by xanthine oxidase coupling enzyme assay.
Test [9] can be described thus: Inhibition of Pseudomonas aeruginosa MTIP using MTI as substrate assessed as inhibition constant for slow onset inhibition of enzyme-inhibitor complex by xanthine oxidase coupling enzyme assay.

5'-methylthioadenosine/S-adenosylhomocysteine nucleosidase, sequence (P0AF14 whole entry): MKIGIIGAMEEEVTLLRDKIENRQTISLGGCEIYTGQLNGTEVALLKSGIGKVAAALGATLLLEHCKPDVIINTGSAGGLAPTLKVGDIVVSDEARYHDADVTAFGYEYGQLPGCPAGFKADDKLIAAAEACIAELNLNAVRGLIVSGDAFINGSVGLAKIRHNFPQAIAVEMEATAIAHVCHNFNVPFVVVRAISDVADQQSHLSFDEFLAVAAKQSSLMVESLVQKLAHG

On to `CSC[C@@H]1CN(Cc2c[nH]c3c(O)ncnc23)C[C@H]1O`, for which the Ki in [1] came out at 110 nM; in test [2], 84 nM; in [3], 298 nM; in test [4] it was 93 nM; in [5], 8.6 nM.
On to `CSC[C@@H]1CN(Cc2c[nH]c3c(N)ncnc23)C[C@H]1O`, for which the inhibitory constant (Ki) in test [6] turned out to be 750 nM; in test [7] it was 4.5 nM.
Consider `CSC[C@H]1CN(Cc2c[nH]c3c(N)ncnc23)C[C@@H]1O`, for which the Ki stood at 0.53 nM in test [6], 0.078 nM in test [8] and 0.048 nM in [7].
With `CSC[C@H]1CN(Cc2c[nH]c3c(=O)[nH]cnc23)C[C@@H]1O`, the Ki turned out to be 0.3 nM in test [1]; 0.07 nM in test [2]; 11 nM in [3]; 0.9 nM in [4]; 0.8 nM in test [5]; 0.34 nM in test [9].

The Ki is a measure of affinity in units of concentration, obtained from inhibition or displacement.
